# In patent publication US20190365675A1, “COMPOSITIONS FOR THE PREVENTION AND/OR TREATMENT OF ALCOHOL USE DISORDERS” (SERVICIO ANDALUZ DE SALUD, priority 2016, published 2019):
# Tests used:
# Type in all cases: in vivo, Wistar rats
# LPS = experiment: Plasma LPS levels (intestinal permeability to endotoxins); conditions: animals pretreated with OEA and receiving ethanol; ethanol alone about 80%; does not differ from control or ethanol group
# Description: (§1) The animals were treated with intragastric (i.g.) ethanol 3 times a day using an i.g. cannula (16G needle, Fisher Scientific, Waltham, Mass., USA), following a protocol based on a slightly modified standard 4-day alcohol intoxication pattern (Bernier et al., 2002a, b) (FIG. 1A). The ethanol doses were administered every 8 h for a total time of 4 days. The rats treated with ethanol received an initial loading dose of 5 g/kg of ethanol in a 30% solution (w/v) and then a maximum maintenance dose of 3 g/kg, which were determined based on blood ethanol levels (BEL). This repeated standard alcohol intoxication paradigm kept BEL intoxication relatively constant in a range of sedation/ataxia (190 to 430 mg/dl, Table 3), according to the 6-point alcohol intoxication behavior scale (Majchrowicz, 1975). The mean dose of ethanol/rat/day (days 1-4) was 7.06 g/kg, similar to other studies (Obernier et al., 2002a, b). […]
# (§2) Corticosterone and LPS were measured in plasma by means of the use of radioimmunoassay (R.I.A.) kits available on the market (Coat-A-Count®, Siemens, La., USA) or colorimetric enzymatic reaction (HyCult Biotech, Uden, Netherlands), respectively.
# corticosterone = experiment: Plasma corticosterone levels (R.I.A.)
# Description: as §1, §2
# TLR4 = TLR4 mRNA and protein expression in frontal cortex after ethanol intoxication; conditions: 2-4 h after last ethanol, OEA pre-treatment
# Description: The animals were treated with intragastric (i.g.) ethanol 3 times a day using an i.g. cannula (16G needle, Fisher Scientific, Waltham, Mass., USA), following a protocol based on a slightly modified standard 4-day alcohol intoxication pattern (Bernier et al., 2002a, b) (FIG. 1A). The ethanol doses were administered every 8 h for a total time of 4 days. The rats treated with ethanol received an initial loading dose of 5 g/kg of ethanol in a 30% solution (w/v) and then a maximum maintenance dose of 3 g/kg, which were determined based on blood ethanol levels (BEL). This repeated standard alcohol intoxication paradigm kept BEL intoxication relatively constant in a range of sedation/ataxia (190 to 430 mg/dl, Table 3), according to the 6-point alcohol intoxication behavior scale (Majchrowicz, 1975). The mean dose of ethanol/rat/day (days 1-4) was 7.06 g/kg, similar to other studies (Obernier et al., 2002a, b). […] The autoradiograph was quantified by densitometry (NIH ImageJ® software, National Biosciences, Lincoln, Nebr. USA) and expressed as optical density (OD). […] The quantitative changes in mRNA levels were estimated by means of RT-PCR, carried out in the presence of the SYBR green primer using a 20-L reaction in a Rotor-Gene (Corbett Research®, Mortlake, NSW, Australia). […]
compound,measurement,setting,value
"CCCCCCCC/C=C\CCCCCCCC(=O)NCCO [OEA, oleoylethanolamide]","Plasma LPS levels, increase with respect to the control",LPS,44%
same,Plasma corticosterone levels in the control animals,corticosterone; control animals (no ethanol),did not modify
same,Ethanol-induced increase in plasma corticosterone levels,"corticosterone; plasma, 2-4 h after last ethanol, OEA pre-treatment",prevented entirely
same,Ethanol-induced TLR4 protein expression,TLR4,reduce
same,Ethanol-induced overexpression of TLR-4 mRNA,TLR4,reduce
